Measured values taken from patent US8455440B2, “Combination anticoagulant therapy with a compound that acts as a factor Xa inhibitor” (Millennium Pharmaceuticals, Inc., priority 2007, dated 2013).

Columns and labels:
factor Xa = biological target: T1, factor Xa (Bos taurus, UniProt P00743); experiment: Anti-factor Xa unit assay; format: biochemical, human; conditions: total knee replacement patients, 15 mg or 40 mg oral twice a day
T1 construct: purchased Diapharma COATEST LMW Heparin
Experimental: The anti-factor Xa (anti-fXa) assay was adapted from a commercial kit (Diapharma COATEST LMW Heparin) and modified to a 96-well format. A low molecular weight heparin, dalteparin, included in the kit was used to construct a standard curve according to the manufacture's instruction using pooled platelets poor plasma. All samples and standards were assayed in duplicate. The limit of quantitation was 0.05 U/mL and results below 0.05 U/mL were reported as below the limit of quantitation. The upper limit of measurement for the plate assay was 1.0 U/mL and samples with anti-factor Xa units higher than 1.0 U/mL were re-assayed after dilution. The coefficient of variation (CV) for both standards and clinical samples were 10%.

[1] = tested on: Thrombosis on mouse mesenteric arteries; experiment: FeCl3 thrombosis on mouse mesenteric arteries; format: in vivo, mice; conditions: for Mean time to occlusion: P2Y12^+/− mice, 10 mg/kg
Excerpt: Commonly used P2Y12 antagonists such as clopidogrel are prescribed at doses that block 40-50% of the P2Y12 receptors on platelets of treated patients. It has been shown that P2Y12^+/− mice which express ˜50% of the receptor on their platelets compared to wild type control (P2Y12^+/+), display an intermediate thrombosis phenotype between wild type and mice completely deficient in P2Y12 (P2Y12^−/−). (Andre, P., et al., J Clin Invest, 2003. 112(3):398-406). P2Y12 regulates platelet adhesion/activation, thrombus growth, and thrombus stability in injured arteries. The effect of Compound A was studied in a thrombosis model with P2Y12^+/− mice to effectively mimic the combination of dual dosing of factor Xa inhibitor and P2Y12 antagonist in humans.
Thrombosis on mouse mesenteric arteries (shear rate 1000-1300 s^−1) was performed and recorded as previously described (Andre, P., et al., J Clin Invest, 2003. 112(3):398-406). Platelets were labeled in situ using rhodamine 6G (0.2 mg/mL) and administered through the tail vein 10 min before visualization of the arteries. Vessel-wall injury was triggered by a 1×1-mm filter paper saturated with a 10% FeCl3 solution. After 5 minutes, the filter paper was removed and mesenteric arteries rinsed with warmed saline (37° C.). Platelet vessel-wall interactions were recorded for 40 additional minutes or until full occlusion occurred and persisted for more than 40 seconds. C57Bl6J mice (wild type control or P2Y12^+/−) were orally gavaged with vehicle control, compound A (2, 4, 10 mg/kg) two hours prior to vascular injury. Thrombosis was analyzed in real time using Simple PCI software. The fluorescence intensity was recorded at a rate of 2 Hz for 40 minutes and plotted over time. Time to occlusion (cessation of blood flow) was analyzed. Plasma concentrations of Compound A were determined on blood collected 2 min post-occlusion or 42 min after start of vascular injury.

[2] = tested on: venous thromboembolism (VTE); experiment: Prospective randomized trial for prevention of venous thromboembolic events after total knee replacement; conditions: for VTE %: 10-14 days
Excerpt: Safety endpoints included the incidence of major and clinically significant nonmajor bleeds through the day after venography. All efficacy and bleeding endpoints were adjudicated by a blinded, independent central adjudication committee.

[3] = tested on: systolic and diastolic blood pressure; experiment: Telemetry blood pressure in conscious beagle dogs, three way crossover; format: in vivo
Experimental: The study design was a three way crossover with one week between doses to ensure complete elimination of residual agents from the dogs' circulatory system. […] Data acquisition and analysis was performed using LDS Life Science Suite Ponemah P3 plus V 4.20 software with results reported as 10 minute averages for each animal.
AUC was derived from the systolic and diastolic baseline. […] Negative values represent a decrease in blood pressure relative to the baseline value.

thrombin generation = experiment: Thrombin generation assay in platelet rich plasma (PRP); format: biochemical, human
Experimental: PRP and PPP were prepared by spinning the anticoagulated blood at ˜100×g or 1000×g for 20 minutes, respectively, at room temperature. Platelet counts in PRP were adjusted with homologous PPP to about 200,000 platelets/μL. For thrombin generation in 100 μL reaction mixture, 75 μL PRP was first mixed with CaCl2, convulxin, and Z-Gly-Gly-Arg-aminomethylcoumarin (Z-GGR-AMC, a thrombin fluorogenic substrate) for 3 minutes at 37° C., followed by adding tissue factor (Innovin, Dade Behring) to initiate the generation of thrombin. A typical reaction mixture contained 15 mM Ca^2+, 0.1 μg/mL convulxin, 100 μM Z-GGR-AMC, and 0.1 nM TF (tissue factor) (Innovin). Thrombin formation was monitored continuously at 37° C. by a fluorometric plate reader (Molecular Devices) measuring the relative fluorescence units (RFU). Inhibitors were pre-incubated with plasma for 20 minutes at room temperature before adding CaCl2 and convulxin.
Non-ASA represents result from donors free of aspirin. ASA represents results from donors taken aspirin for at least three days. % Inhibition was calculated by normalization of mean RFU (n=5) to Non-ASA at 0 nM Compound A.

[4] = tested on: ferric chloride induced thrombosis in rat carotid artery; experiment: Ferric chloride induced thrombosis in rat carotid artery; format: in vivo; conditions: for % Did not occlude (inhibition of rat thrombosis) / Number of animals without occlusion: intravenous infusion; for Number of animals without occlusion: 10 animals; for time to occlusion: animals that had vessel occlusion
[5] = wild type mice, 10 mg/kg oral gavage
[6] = Dog # 1, oral, Compound A 3 mg/kg, verapamil 10 mg/kg
[7] = Dog # 2, oral, Compound A 3 mg/kg, verapamil 10 mg/kg
[8] = Dog # 3, oral, Compound A 3 mg/kg, verapamil 10 mg/kg
[9] = three dogs, oral, Compound A 3 mg/kg, verapamil 10 mg/kg

T1 sequence (P00743 234-492 limits assumed): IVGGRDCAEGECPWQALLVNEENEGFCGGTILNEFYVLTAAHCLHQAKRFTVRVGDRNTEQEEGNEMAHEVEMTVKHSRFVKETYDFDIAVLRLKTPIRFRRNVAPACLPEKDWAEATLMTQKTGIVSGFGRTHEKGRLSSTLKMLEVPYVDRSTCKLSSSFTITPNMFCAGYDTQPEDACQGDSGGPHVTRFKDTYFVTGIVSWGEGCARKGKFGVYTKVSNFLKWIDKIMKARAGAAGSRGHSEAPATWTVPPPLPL
T1 sequence (P00743 41-180 partner limits assumed): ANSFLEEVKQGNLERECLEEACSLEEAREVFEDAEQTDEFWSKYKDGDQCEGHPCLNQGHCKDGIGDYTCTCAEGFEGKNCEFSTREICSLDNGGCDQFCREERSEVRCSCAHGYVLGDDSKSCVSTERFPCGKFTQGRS

COc1ccc(NC(=O)c2ccc(C(=N)N(C)C)cc2)c(C(=O)Nc2ccc(Cl)cn2)c1 [Compound A, [2-({4-[(dimethylamino)iminomethyl]phenyl}carbonylamino)-5-methoxyphenyl]-N-(5-chloro(2-pyridyl))carboxamide]
effect on anti-factor Xa levels (factor Xa): dose- and concentration-dependent effect
plasma concentration sufficient to prevent vascular occlusion ([1]; P2Y12^+/− animals): more than 76 ng/mL
time to occlusion ([1]; P2Y12^+/− mice with Compound A (756.7 seconds without)): over 2100 seconds
Mean time to occlusion ([1]; Experiment 1): 2143 s
Mean time to occlusion ([1]; Experiment 2): 2399 s
Mean time to occlusion ([1]; Experiment 3): 2305 s
circulating plasma concentration that prevented vascular occlusion ([1]; wild type animals): more than 1000 ng/mL
time for appearance of first thrombus [1, 5]: significantly delayed
time to occlusion [1, 5]: significantly delayed
antithrombotic effect ([1]; wild type mice, 2 and 4 mg/kg oral gavage two hours prior to injury): non-effective
Clinical significant nonmajor bleeds % ([2]; Compound A 15 mg bid): 0%
Major Bleeds % ([2]; Compound A 15 mg bid): 0%
VTE % ([2]; Compound A 15 mg bid oral, n = 69): 20%
Clinical significant nonmajor bleeds % ([2]; Compound A 40 mg bid): 2.4%
Major Bleeds % ([2]; Compound A 40 mg bid): 0%
VTE % ([2]; Compound A 40 mg bid oral, n = 65): 15%
diastolic blood pressure (DBP) compared to pre-dose values ([3]; Compound A 3 mg/kg as a single agent, oral): no statistical differences
Lowest Diastolic Blood Pressure Post-Dosing [3, 6]: 92.57 mmHg
Lowest Systolic Blood Pressure Post-Dosing [3, 6]: 150.32 mmHg
Lowest Diastolic Blood Pressure Post-Dosing [3, 7]: 83.73 mmHg
Lowest Systolic Blood Pressure Post-Dosing [3, 7]: 121.08 mmHg
Lowest Diastolic Blood Pressure Post-Dosing [3, 8]: 80.52 mmHg
Lowest Systolic Blood Pressure Post-Dosing [3, 8]: 101.93 mmHg
Mean Area Under the Curve for Systolic Pressure (AUCP), Mean ± S.D. ([3]; following verapamil or placebo administration ([…]), relative to baseline): 782.7 ± 1297.8 mmHg * min.
measures of blood pressure upon coadministration with verapamil ([3]; telemeterized dogs): did not change the measures of blood pressure
Lowest Diastolic Blood Pressure Post-Dosing, Mean ± S.D. [3, 9]: 85.60 ± 6.24 mmHg
Lowest Systolic Blood Pressure Post-Dosing, Mean ± S.D. [3, 9]: 124.44 ± 24.37 mmHg
% Inhibition of thrombin generation (thrombin generation; ASA donors, 7.8125 nM Compound A, normalized to Non-ASA at 0 nM): 24.6%
% Inhibition of thrombin generation (thrombin generation; ASA donors, 15.625 nM Compound A, normalized to Non-ASA at 0 nM): 26.9%
% Inhibition of thrombin generation (thrombin generation; ASA donors, 31.25 nM Compound A, normalized to Non-ASA at 0 nM): 33.4%
% Inhibition of thrombin generation (thrombin generation; ASA donors, 62.5 nM Compound A, normalized to Non-ASA at 0 nM): 46.0%
% Inhibition of thrombin generation (thrombin generation; ASA donors, 125 nM Compound A, normalized to Non-ASA at 0 nM): 64.7%
% Inhibition of thrombin generation (thrombin generation; ASA donors, 250 nM Compound A, normalized to Non-ASA at 0 nM): 82.5%
% Inhibition of thrombin generation (thrombin generation; ASA donors, 500 nM Compound A, normalized to Non-ASA at 0 nM): 94.6%
% Inhibition of thrombin generation (thrombin generation; Non-ASA donors, 7.8125 nM Compound A): 3.2%
% Inhibition of thrombin generation (thrombin generation; Non-ASA donors, 15.625 nM Compound A): 5.1%
% Inhibition of thrombin generation (thrombin generation; Non-ASA donors, 31.25 nM Compound A): 12.2%
% Inhibition of thrombin generation (thrombin generation; Non-ASA donors, 62.5 nM Compound A): 25.2%
% Inhibition of thrombin generation (thrombin generation; Non-ASA donors, 125 nM Compound A): 55.1%
% Inhibition of thrombin generation (thrombin generation; Non-ASA donors, 250 nM Compound A): 81.1%
% Inhibition of thrombin generation (thrombin generation; Non-ASA donors, 500 nM Compound A): 96.0%
% Did not occlude (inhibition of rat thrombosis) ([4]; 0.03 μM Compound A): 30%
Number of animals without occlusion ([4]; 0.03 μM Compound A): 3
time to occlusion ([4]; 0.03 μM Compound A): 27.07
% Did not occlude (inhibition of rat thrombosis) ([4]; 0.1 μM Compound A): 60%
Number of animals without occlusion ([4]; 0.1 μM Compound A): 6
time to occlusion ([4]; 0.1 μM Compound A): 52.66
% Did not occlude (inhibition of rat thrombosis) ([4]; 0.3 μM Compound A): 90%
Number of animals without occlusion ([4]; 0.3 μM Compound A): 9
time to occlusion ([4]; 0.3 μM Compound A): 35.78
% DNO (inhibition of rat thrombosis) ([4]; Compound A 0.03 μM iv infusion, aspirin 3 mg/kg iv bolus, or both): 30%
TTO (Time to occlusion) ([4]; average for animals that occluded, Compound A 0.03 μM, aspirin 3 mg/kg, or both): 27.07 ± 7.36 min
DNO (did not occlude) ([4]; number of 10 animals, Compound A 0.03 μM iv infusion, aspirin 3 mg/kg iv bolus, or both): 3
